Experimental data taken from US8338565B2, “Macrocyclic compounds for inhibition of tumor necrosis factor alpha” (Ensemble Therapeutics Corporation, priority 2008, dated 2012).
Where two headings read alike, the source gives them in different places.

Biological target: T1, TNFα / TNFα receptor (TNFα R1/Fc) (Homo sapiens, UniProt P01375)
T1 construct: purchased R&D Systems
Assay: Inhibition of binding of TNFα to the TNFα receptor (plate ELISA competition)
Settings: Table 2
In short: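 Compound dilutions were preincubated 30 min at RT with 8.33 nM TNFα R1/Fc in PBST with 2% DMSO, then added to wells coated with 15 nM TNFα for 30 min. Bound receptor was detected with HRP anti-human Fc and TMB, read as A450.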

[1] = read-out: Activity (IC50, inhibition of TNFα binding to TNFα R1/Fc)

T1 sequence (P01375 77-233 limits assumed, species assumed): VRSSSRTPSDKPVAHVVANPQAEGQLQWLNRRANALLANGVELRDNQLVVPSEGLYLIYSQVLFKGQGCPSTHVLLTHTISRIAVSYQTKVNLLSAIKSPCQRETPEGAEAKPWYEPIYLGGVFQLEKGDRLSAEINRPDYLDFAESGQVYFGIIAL

Row | IC50 [1] [µM] | Compound | IC50 (Activity (IC50, inhibition of TNFα binding to TNFα R1/Fc)) [µM]
1 | < 10 | COc1ccc(C[C@@H]2NC(=O)[C@@H](Cc3ccc(-c4ccccc4)cc3)NC(=O)[C@H](Cc3ccncc3)NC(=O)COc3ccc(cc3)C[C@@H](C(=O)O)NC2=O)cc1 [Compound 639] | –
2 | < 10 | O=C1COc2ccc(cc2)C[C@@H](C(=O)O)NC(=O)[C@H](Cc2c[nH]c3ccccc23)NC(=O)[C@@H](Cc2ccc(-c3ccccc3)cc2)NC(=O)[C@H](Cc2cccs2)N1 [Compound 640] | –
3 | < 10 | N#Cc1cccc(C[C@H]2CC(=O)N[C@H](C(=O)O)Cc3ccc(cc3)OCC(=O)N[C@@H](Cc3cccs3)C(=O)N[C@H](Cc3ccc(-c4ccccc4)cc3)C(=O)N2)c1 [Compound 641] | –
4 | < 10 | O=C1COc2ccc(cc2)C[C@@H](C(=O)O)NC(=O)[C@H](Cc2ccc(-c3ccccn3)cc2)NC(=O)[C@@H](Cc2ccc(-c3ccccc3)cc2)NC(=O)[C@H](Cc2ccncc2)N1 [Compound 643] | –
5 | < 10 | O=C1COc2ccc(cc2)C[C@@H](C(=O)O)NC(=O)[C@H](Cc2ccc(-c3cccnc3)cc2)NC(=O)[C@@H](Cc2ccc(-c3ccccc3)cc2)NC(=O)[C@H](Cc2ccncc2)N1 [Compound 644] | –
6 | < 10 | O=C1COc2ccc(cc2)C[C@@H](C(=O)O)NC(=O)[C@H](Cc2ccc(-c3ccncc3)cc2)NC(=O)[C@@H](Cc2ccc(-c3ccccc3)cc2)NC(=O)[C@H](Cc2ccncc2)N1 [Compound 645] | –
7 | < 10 | O=C1COc2ccc(cc2)C[C@@H](C(=O)O)NC(=O)[C@H](Cc2ccccc2)NC(=O)[C@@H](Cc2ccc(-c3ccccc3)cc2)NC(=O)[C@H](Cc2ccncc2)N1 [Compound 646] | –
8 | < 10 | O=C1COc2ccc(cc2)C[C@@H](C(=O)O)NC(=O)[C@H](Cc2cccc(C(F)(F)F)c2)NC(=O)[C@@H](Cc2ccc(-c3ccccc3)cc2)NC(=O)[C@H](Cc2ccncc2)N1 [Compound 648] | –
9 | < 10 | O=C1COc2ccc(cc2)C[C@@H](C(=O)O)NC(=O)[C@H](Cc2ccccc2C(F)(F)F)NC(=O)[C@@H](Cc2ccc(-c3ccccc3)cc2)NC(=O)[C@H](Cc2ccncc2)N1 [Compound 649] | –
10 | < 10 | O=C1COc2ccc(cc2)C[C@@H](C(=O)O)NC(=O)[C@H](Cc2ccc(Cl)cc2Cl)NC(=O)[C@@H](Cc2ccc(-c3ccccc3)cc2)NC(=O)[C@H](Cc2ccncc2)N1 [Compound 650] | –
11 | < 10 | O=C1COc2ccc(cc2)C[C@@H](C(=O)O)NC(=O)[C@H](Cc2cccs2)NC(=O)[C@@H](Cc2ccc(-c3ccccc3)cc2)NC(=O)[C@H](Cc2ccncc2)N1 [Compound 652] | –
12 | < 10 | O=C1COc2ccc(cc2)C[C@@H](C(=O)O)NC(=O)[C@H](Cc2c[nH]c3ccccc23)NC(=O)[C@@H](Cc2ccc(-c3ccccc3)cc2)NC(=O)[C@H](Cc2ccncc2)N1 [Compound 653] | –
13 | < 10 | O=C1COc2ccc(cc2)C[C@@H](C(=O)O)NC(=O)[C@H](CCc2ccccc2)NC(=O)[C@@H](Cc2ccc(-c3ccc(F)cc3)cc2)NC(=O)[C@H](Cc2cccs2)N1 [Compound 655] | –
14 | < 10 | O=C1COc2ccc(cc2)C[C@@H](C(=O)O)NC(=O)[C@H](CCc2ccccc2)NC(=O)[C@@H](Cc2ccc(-c3ccc(O)cc3)cc2)NC(=O)[C@H](Cc2cccs2)N1 [Compound 656] | –
15 | – | O=C1COc2ccc(cc2)C[C@@H](C(=O)O)NC(=O)[C@H](CCc2ccccc2)NC(=O)[C@@H](Cc2ccc(-c3ccncc3)cc2)NC(=O)[C@H](Cc2cccs2)N1 [Compound 658] | < 10
16 | < 10 | O=C1COc2ccc(cc2)C[C@@H](C(=O)O)NC(=O)[C@H](CCc2ccccc2)NC(=O)[C@@H](Cc2ccc(-c3ccccc3)cc2)NC(=O)[C@H](Cc2ccccn2)N1 [Compound 660] | –
17 | 30 to 100 | O=C1COc2ccc(cc2)C[C@@H](C(=O)O)NC(=O)[C@H](CCc2ccccc2)NC(=O)[C@@H](Cc2ccc(-c3ccncc3)cc2)NC(=O)[C@H](Cc2ccccn2)N1 [Compound 661] | –
18 | < 10 | O=C1COc2ccc(cc2)C[C@@H](C(=O)O)NC(=O)[C@H](CCc2ccccc2)NC(=O)[C@@H](Cc2ccc(-c3ccccc3)cc2)NC(=O)[C@H](Cc2cccnc2)N1 [Compound 662] | –
19 | > 100 | O=C1COc2ccc(cc2)C[C@@H](C(=O)O)NC(=O)[C@H](CCc2ccccc2)NC(=O)[C@@H](Cc2ccc(-c3ccccn3)cc2)NC(=O)[C@H](Cc2cccnc2)N1 [Compound 663] | –
20 | 30 to 100 | O=C1COc2ccc(cc2)C[C@@H](C(=O)O)NC(=O)[C@H](CCc2ccccc2)NC(=O)[C@@H](Cc2ccc(-c3ccccn3)cc2)NC(=O)[C@H](Cc2ccncc2)N1 [Compound 664] | –
21 | 10 to 30 | O=C1COc2ccc(cc2)C[C@@H](C(=O)O)NC(=O)[C@H](CCc2ccccc2)NC(=O)[C@@H](Cc2ccc(-c3cccnc3)cc2)NC(=O)[C@H](Cc2ccncc2)N1 [Compound 665] | –
22 | 10 to 30 | O=C1COc2ccc(cc2)C[C@@H](C(=O)O)NC(=O)[C@H](CCc2ccccc2)NC(=O)[C@@H](Cc2ccc(-c3ccncc3)cc2)NC(=O)[C@H](Cc2ccncc2)N1 [Compound 666] | –

Row | IC50 [1] [µM] | Compound | IC50 (Activity (IC50, inhibition of TNFα binding to TNFα R1/Fc)) [µM]
23 | > 100 | O=C1COc2ccc(cc2)C[C@@H](C(=O)O)NC(=O)[C@H](CCc2ccccc2)NC(=O)[C@@H](Cc2ccc(-c3ccccn3)cc2)NC(=O)[C@H](Cc2ccccn2)N1 [Compound 667] | –
24 | > 100 | O=C1COc2ccc(cc2)C[C@@H](C(=O)O)NC(=O)[C@H](CCc2ccccc2)NC(=O)[C@@H](Cc2ccc(-c3cccnc3)cc2)NC(=O)[C@H](Cc2cccnc2)N1 [Compound 668] | –
25 | < 10 | O=C1COc2ccc(cc2)C[C@H](C(=O)O)NC(=O)[C@H](CCc2ccccc2)NC(=O)[C@@H](Cc2ccc(-c3ccccc3)cc2)NC(=O)[C@H](Cc2cccs2)N1 [Compound 673] | –
26 | > 100 | O=C1COc2ccc(cc2)C[C@H](C(=O)O)NC(=O)[C@H](Cc2ccccc2)NC(=O)[C@@H](Cc2ccc(-c3ccccc3)cc2)NC(=O)[C@H](Cc2cccs2)N1 [Compound 675] | –
27 | < 10 | O=C1COc2ccc(cc2)C[C@@H](C(=O)O)NC(=O)[C@H](CCc2ccccc2)NC(=O)[C@@H](Cc2ccc(-c3ccccc3)cc2)NC(=O)[C@H](Cc2ccccc2F)N1 [Compound 677] | –
28 | < 10 | O=C1COc2ccc(cc2)C[C@@H](C(=O)O)NC(=O)[C@H](CCc2ccccc2)NC(=O)[C@@H](Cc2ccc(-c3ccccc3)cc2)NC(=O)[C@H](Cc2ccc(F)cc2)N1 [Compound 679] | –
29 | < 10 | COc1cccc(C[C@@H]2NC(=O)COc3ccc(cc3)C[C@@H](C(=O)O)NC(=O)[C@H](CCc3ccccc3)NC(=O)[C@@H](Cc3ccc(-c4ccccc4)cc3)NC2=O)c1 [Compound 680] | –
30 | < 10 | COc1ccc(C[C@@H]2NC(=O)COc3ccc(cc3)C[C@@H](C(=O)O)NC(=O)[C@H](CCc3ccccc3)NC(=O)[C@@H](Cc3ccc(-c4ccccc4)cc3)NC2=O)cc1 [Compound 681] | –
31 | < 10 | O=C1COc2ccc(cc2)C[C@@H](C(=O)O)NC(=O)[C@H](CCc2ccccc2)NC(=O)[C@@H](Cc2ccc(-c3ccccc3)cc2)NC(=O)[C@H](Cc2ccc(-c3ccncc3)cc2)N1 [Compound 684] | –
32 | < 10 | O=C1COc2ccc(cc2)C[C@@H](C(=O)O)NC(=O)[C@H](CCc2ccccc2)NC(=O)[C@@H](Cc2ccc(-c3ccccc3)cc2)NC(=O)[C@H](Cc2ccc(OCc3ccccc3)cc2)N1 [Compound 685] | –
33 | < 10 | O=C1COc2ccc(cc2)C[C@@H](C(=O)O)NC(=O)[C@H](CCc2ccccc2)NC(=O)[C@@H](Cc2ccc(-c3ccccc3)cc2)NC(=O)[C@H](Cc2ccc(O)cc2)N1 [Compound 686] | –
34 | < 10 | O=C1COc2ccc(cc2)C[C@@H](C(=O)O)NC(=O)[C@H](CCc2ccccc2)NC(=O)[C@@H](Cc2ccc(-c3ccccc3)cc2)NC(=O)[C@H](Cc2ccco2)N1 [Compound 687] | –
35 | < 10 | O=C1COc2ccc(cc2)C[C@@H](C(=O)O)NC(=O)[C@H](CCc2ccccc2)NC(=O)[C@@H](Cc2ccc(-c3ccccc3)cc2)NC(=O)[C@H](Cc2ccccc2C(F)(F)F)N1 [Compound 689] | –
36 | 10 to 30 | O=C1COc2ccc(cc2)C[C@@H](C(=O)O)NC(=O)[C@H](CCc2ccccc2)NC(=O)[C@@H](Cc2ccc(-c3ccccc3)cc2)NC(=O)[C@H](Cc2cccc(C(F)(F)F)c2)N1 [Compound 690] | –
37 | < 10 | O=C1COc2ccc(cc2)C[C@@H](C(=O)O)NC(=O)[C@H](CCc2ccccc2)NC(=O)[C@@H](Cc2ccc(-c3ccccc3)cc2)NC(=O)[C@H](Cc2ccc(C(F)(F)F)cc2)N1 [Compound 691] | –
38 | < 10 | Cc1ccc(C[C@@H]2NC(=O)COc3ccc(cc3)C[C@@H](C(=O)O)NC(=O)[C@H](CCc3ccccc3)NC(=O)[C@@H](Cc3ccc(-c4ccccc4)cc3)NC2=O)cc1 [Compound 692] | –
39 | < 10 | O=C1COc2ccc(cc2)C[C@@H](C(=O)O)NC(=O)[C@H](CCc2ccccc2)NC(=O)[C@@H](Cc2ccc(-c3ccccc3)cc2)NC(=O)[C@H](Cc2cn(-c3ccccc3)nn2)N1 [Compound 693] | –
40 | < 10 | O=C1COc2ccc(cc2)C[C@@H](C(=O)O)NC(=O)[C@H](CCc2ccccc2)NC(=O)[C@@H](Cc2ccc(-c3ccccc3)cc2)NC(=O)[C@H](Cc2cccc3ccccc23)N1 [Compound 694] | –
41 | < 10 | O=C1COc2ccc(cc2)C[C@@H](C(=O)O)NC(=O)[C@H](CCc2ccccc2)NC(=O)[C@@H](Cc2ccc(-c3ccccc3)cc2)NC(=O)[C@H](Cc2ccc3ccccc3c2)N1 [Compound 695] | –
42 | < 10 | O=C1COc2ccc(cc2)C[C@@H](C(=O)O)NC(=O)[C@H](CCc2ccccc2)NC(=O)[C@@H](Cc2ccc(-c3ccccc3)cc2)NC(=O)[C@H](Cc2cscn2)N1 [Compound 696] | –
43 | < 10 | O=C1COc2ccc(cc2)C[C@@H](C(=O)O)NC(=O)[C@H](CCc2ccccc2)NC(=O)[C@@H](Cc2ccc(-c3ccccc3)cc2)NC(=O)[C@H](Cc2ccc(Cl)cc2Cl)N1 [Compound 697] | –
44 | < 10 | O=C1COc2ccc(cc2)C[C@@H](C(=O)O)NC(=O)[C@H](CCc2ccccc2)NC(=O)[C@@H](Cc2ccc(-c3ccccc3)cc2)NC(=O)[C@H](Cc2ccc(-c3ccc(F)cc3)cc2)N1 [Compound 698] | –
